IC50 and melting point data for 35 molecules are collected here from patent publication US8232401B2 (Japan Tobacco Inc., priority 2002, dated 2012).

The structures appear in SMILES notation.

The target of the first data set is T1, HIV integrase (Human immunodeficiency virus type 1 group M subtype B, UniProt P12497, F1332H).
T1 construct: HIV integrase full length gene; made in house; host or cells: Escherichia coli BL21(DE3)
Briefly: Determination of enzyme (HIV integrase) inhibitory activity (strand transfer, microtiter plate, absorbance at 450 nm). To be noted: recombinant HIV integrase (F185H) expressed in E. coli; donor DNA on streptavidin plate, digoxigenin target DNA; 37° C. Format: biochemical, HIV (Human Immunodeficiency Virus (type 1)).
Consider `O=C(O)c1cn(CCO)c2ccc(Cc3cccc(Cl)c3Cl)cc2c1=O` [Example 1-1, 6-(2,3-dichlorobenzyl)-1,4-dihydro-1-(2-hydroxyethyl)-4-oxo-3-quinolinecarboxylic acid], for which the IC50 was 29 nM.
On the same count and under the same terms, as for `CCOc1cc(Cc2cccc(Cl)c2F)cc2c(=O)c(C(=O)O)cn([C@@H](CC)CO)c12` [Example 4-21, (S)-6-(3-Chloro-2-fluorobenzyl)-8-ethoxy-1-[1-(hydroxymethyl)propyl]-4-oxo-1,4-dihydroquinoline-3-carboxylic acid], the figure is 4.5 nM.
On to `O=C(O)c1cn(CCO)c2ccc(Cc3c(F)cccc3Cl)cc2c1=O` [Example 1-64], for which the IC50 worked out at 56 nM.
Same read-out and setting: then `COc1cc(Cc2c(F)ccc(Cl)c2F)cc2c(=O)c(C(=O)O)cn(CCO)c12` [Example 3-37, 6-(3-Chloro-2,6-difluorobenzyl)-1-(2-hydroxyethyl)-8-methoxy-4-oxo-1,4-dihydroquinoline-3-carboxylic acid], with 11 nM; and `C[C@H](CO)n1cc(C(=O)O)c(=O)c2cc(Cc3cccc(Cl)c3F)ccc21` [Example 3-24, (R)-6-(3-Chloro-2-fluorobenzyl)-1-(2-hydroxy-1-methylethyl)-4-oxo-1,4-dihydroquinoline-3-carboxylic acid], with 39 nM; and `COc1cc(Cc2cccc(Cl)c2F)cc2c(=O)c(C(=O)O)cn([C@H](CO)C3CCCCC3)c12` [Example 4-44, (S)-6-(3-Chloro-2-fluorobenzyl)-1-(1-cyclohexyl-2-hydroxyethyl)-8-methoxy-4-oxo-1,4-dihydroquinoline-3-carboxylic acid], with 2.4 nM.
Same read-out and setting: as for `CCOc1cc(Cc2cccc(Cl)c2F)cc2c(=O)c(C(=O)O)cn([C@H](CO)C(C)(C)C)c12` [Example 4-37, (S)-6-(3-Chloro-2-fluorobenzyl)-8-ethoxy-1-[2,2-dimethyl-1-(hydroxymethyl)propyl]-4-oxo-1,4-dihydroquinoline-3-carboxylic acid], the figure is 1.9 nM; as for `O=C(O)c1cn(CCCCCO)c2ccc(Cc3cccc(Cl)c3Cl)cc2c1=O` [Example 1-34, 6-(2,3-Dichlorobenzyl)-1-(5-hydroxypentyl)-4-oxo-1,4-dihydroquinoline-3-carboxylic acid], 350 nM; as for `CS(=O)(=O)NCCn1cc(C(=O)O)c(=O)c2cc(Cc3cccc(Cl)c3Cl)ccc21` [Example 1-3, 6-(2,3-Dichlorobenzyl)-1-(2-methanesulfonylaminoethyl)-4-oxo-1,4-dihydroquinoline-3-carboxylic acid], 360 nM.
The same measure, in the same setting: as for `O=C(O)c1cn(CCO)c2ccc(Cc3cccc(Br)c3)cc2c1=O` [Example 1-96], the figure is 230 nM; as for `CCC[C@@H](CO)n1cc(C(=O)O)c(=O)c2cc(Cc3cccc(Cl)c3F)cc(OCC)c21` [Example 4-48, (S)-6-(3-Chloro-2-fluorobenzyl)-8-ethoxy-1-[1-(hydroxymethyl)butyl]-4-oxo-1,4-dihydroquinoline-3-carboxylic acid], 3 nM; as for `CCOc1cc2c(cc1Cc1cccc(Cl)c1F)c(=O)c(C(=O)O)cn2CCO` [Example 3-44, 6-(3-Chloro-2-fluorobenzyl)-7-ethoxy-1-(2-hydroxyethyl)-4-oxo-1,4-dihydroquinoline-3-carboxylic acid], 9.6 nM.
`C[C@@H](CO)n1cc(C(=O)O)c(=O)c2cc(Cc3cccc(Cl)c3F)cc(N(C)C)c21` [Example 3-80, (S)-6-(3-Chloro-2-fluorobenzyl)-8-dimethylamino-1-(2-hydroxy-1-methylethyl)-4-oxo-1,4-dihydroquinoline-3-carboxylic acid]: the IC50 came out at 8.8 nM.
On the same count and under the same terms, as for `CCCNc1cc(Cc2cccc(Cl)c2F)cc2c(=O)c(C(=O)O)cn(CCO)c12` [Example 3-54, 6-(3-Chloro-2-fluorobenzyl)-1-(2-hydroxyethyl)-4-oxo-8-propylamino-1,4-dihydroquinoline-3-carboxylic acid], the figure is 6.4 nM; as for `CC(C)Oc1cc(Cc2cccc(Cl)c2F)cc2c(=O)c(C(=O)O)cn([C@H](CO)C3CCCCC3)c12` [Example 4-50, (S)-6-(3-Chloro-2-fluorobenzyl)-1-(1-cyclohexyl-2-hydroxyethyl)-8-isopropyloxy-4-oxo-1,4-dihydroquinoline-3-carboxylic acid], 3.1 nM.
On the same count and under the same terms, as for `O=C(O)c1cn(CCO)c2ccc(Cc3c(F)cccc3Cl)cc2c1=O` [Example 1-33, 6-(2-Chloro-6-fluorobenzyl)-1-(2-hydroxyethyl)-4-oxo-1,4-dihydroquinoline-3-carboxylic acid], the figure is 140 nM; as for `CCOc1cc2c(cc1Cc1cccc(Cl)c1F)c(=O)c(C(=O)O)cn2[C@@H](C)CO` [Example 3-61, (S)-6-(3-Chloro-2-fluorobenzyl)-7-ethoxy-1-(2-hydroxy-1-methylethyl)-4-oxo-1,4-dihydroquinoline-3-carboxylic acid], 7.6 nM; as for `O=C(O)c1cn(CCO)c2ccc(Cc3cccc([N+](=O)[O-])c3)cc2c1=O` [Example 1-67], 790 nM.
For the molecule `CN(C)/C=N/c1cc2c(cc1Cc1cccc(Cl)c1F)c(=O)c(C(=O)O)cn2CCO` [Example 3-50, 6-(3-Chloro-2-fluorobenzyl)-7-(dimethylaminomethyleneamino)-1-(2-hydroxyethyl)-4-oxo-1,4-dihydroquinoline-3-carboxylic acid], the IC50 was 18 nM.
Still for that read-out and setting: as for `O=C(O)c1cn(CCc2ccccc2)c2ccc(Cc3ccccc3Cl)cc2c1=O` [Example 1-65, 6-(2-Chlorobenzyl)-4-oxo-1-phenethyl-1,4-dihydroquinoline-3-carboxylic acid], the figure is 120 nM; as for `CCC[C@@H](CO)n1cc(C(=O)O)c(=O)c2cc(Cc3cccc(Cl)c3F)c(OCC)cc21` [Example 4-36, (S)-6-(3-Chloro-2-fluorobenzyl)-7-ethoxy-1-[1-(hydroxymethyl)butyl]-4-oxo-1,4-dihydroquinoline-3-carboxylic acid], 3.7 nM; as for `CS(=O)(=O)CCn1cc(C(=O)O)c(=O)c2cc(Cc3cccc(Cl)c3Cl)ccc21` [Example 1-41, 6-(2,3-Dichlorobenzyl)-1-(2-methanesulfonylethyl)-4-oxo-1,4-dihydroquinoline-3-carboxylic acid], 210 nM.
Same read-out and setting: as for `O=C(O)c1cn(Cc2ccccc2-c2ccccc2)c2ccc(Cc3cccc(Cl)c3Cl)cc2c1=O` [Example 1-20, 1-Biphenyl-2-ylmethyl-6-(2,3-dichlorobenzyl)-4-oxo-1,4-dihydroquinoline-3-carboxylic acid], the figure is 690 nM; as for `CC(C)(O)Cn1cc(C(=O)O)c(=O)c2cc(Cc3cccc(Cl)c3Cl)ccc21` [Example 1-47, 6-(2,3-Dichlorobenzyl)-1-(2-hydroxy-2-methylpropyl)-4-oxo-1,4-dihydroquinoline-3-carboxylic acid], 98 nM; as for `CC(C)C[C@@H](CO)n1cc(C(=O)O)c(=O)c2cc(Cc3cccc(Cl)c3F)c(OC(C)C)cc21` [Example 4-23, (S)-6-(3-Chloro-2-fluorobenzyl)-1-(1-hydroxymethyl-3-methylbutyl)-7-isopropyloxy-4-oxo-1,4-dihydroquinoline-3-carboxylic acid], 3.8 nM.
The same measure, in the same setting: then `CCOc1ccccc1Cc1ccc2c(c1)c(=O)c(C(=O)O)cn2CCO` [Example 4-13, 6-(2-Ethoxybenzyl)-1-(2-hydroxyethyl)-4-oxo-1,4-dihydroquinoline-3-carboxylic acid], with 300 nM; and `CC(=O)Nn1cc(C(=O)O)c(=O)c2cc(Cc3cccc(Cl)c3Cl)ccc21` [Example 2-3, 1-Acetylamino-6-(2,3-dichlorobenzyl)-4-oxo-1,4-dihydroquinoline-3-carboxylic acid], with 110 nM; and `CC(C)(CO)n1cc(C(=O)O)c(=O)c2cc(Cc3cccc(Cl)c3F)ccc21` [Example 3-43, 6-(3-Chloro-2-fluorobenzyl)-1-(1,1-dimethyl-2-hydroxyethyl)-4-oxo-1,4-dihydroquinoline-3-carboxylic acid], with 18 nM.
As to `Cc1cc2c(cc1Cc1cccc(Cl)c1Cl)c(=O)c(C(=O)O)cn2CCO` [Example 4-15, 6-(2,3-Dichlorobenzyl)-7-methyl-1-(2-hydroxyethyl)-4-oxo-1,4-dihydroquinoline-3-carboxylic acid], the IC50 was found to be 31 nM.
Same read-out and setting: then `CCOC(=O)NCCn1cc(C(=O)O)c(=O)c2cc(Cc3cccc(Cl)c3Cl)ccc21` [Example 1-49, 6-(2,3-Dichlorobenzyl)-1-(2-ethoxycarbonylaminoethyl)-4-oxo-1,4-dihydroquinoline-3-carboxylic acid], with 53 nM; and `CN(C)CCn1cc(C(=O)O)c(=O)c2cc(Cc3cccc(Cl)c3Cl)ccc21` [Example 1-24, 6-(2,3-Dichlorobenzyl)-1-(2-dimethylaminoethyl)-4-oxo-1,4-dihydroquinoline-3-carboxylic acid], with 290 nM; and `CCOc1cc(Cc2cccc(Cl)c2F)cc2c(=O)c(C(=O)O)cn([C@H](CO)C(C)C)c12` [Example 4-45, (S)-6-(3-Chloro-2-fluorobenzyl)-8-ethoxy-1-(1-hydroxymethyl-2-methylpropyl)-4-oxo-1,4-dihydroquinoline-3-carboxylic acid], with 3.4 nM.
On the same count and under the same terms, as for `O=C(O)c1cn(CC(O)c2ccccc2)c2ccc(Cc3cccc(Cl)c3Cl)cc2c1=O` (stereo not drawn) [Example 1-43, 6-(2,3-Dichlorobenzyl)-1-(2-hydroxy-2-phenylethyl)-4-oxo-1,4-dihydroquinoline-3-carboxylic acid], the figure is 24 nM; as for `O=C(O)c1cn(CCO)c2ccc(Cc3ccccc3Br)cc2c1=O` [Example 1-80, 6-(2-Bromobenzyl)-1-(2-hydroxyethyl)-4-oxo-1,4-dihydroquinoline-3-carboxylic acid], 350 nM; as for `CCCCn1cc(C(=O)O)c(=O)c2cc(Cc3cccc(Cl)c3Cl)ccc21` [Example 1-39, 1-Butyl-6-(2,3-Dichlorobenzyl)-4-oxo-1,4-dihydroquinoline-3-carboxylic acid], 180 nM.

Test system in another data set: not given
Experiment: not given
Details: not given
`O=C(O)c1cn(CCO)c2ccc(Cc3cccc(Cl)c3Cl)cc2c1=O` [Example 1-1, 6-(2,3-dichlorobenzyl)-1,4-dihydro-1-(2-hydroxyethyl)-4-oxo-3-quinolinecarboxylic acid] gave a melting point of 247 to 249 °C.

As a reminder, the IC50 is the concentration at which inhibition is half-maximal. The term melting point denotes the temperature, or range, at which the solid turns liquid.
